Laboratory results taken from patent publication US12378224B2 (Dong-A Socio Holdings Co., Ltd., priority 2016, dated 2025).

Biological target: human MER (528-end) (Homo sapiens (Human), UniProt Q12866)
Test: HTRF Kinase Activity Biochemical Assay (KinEASE-TK)
Details: 10 uM ATP
Outline: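 Recombinant human MER (528-end) phosphorylated biotin-TK peptide substrate, 1 h at room temperature. Reaction stopped with detection buffer containing 0.375 nM Eu3+-cryptate anti-TK antibody and 0.062 uM streptavidin-XL665, 1 h further. Activity taken as HTRF ratio 665/620 nm ×10,000, 340 nm excitation.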

human MER (528-end), sequence (Q12866 528-999 limits assumed): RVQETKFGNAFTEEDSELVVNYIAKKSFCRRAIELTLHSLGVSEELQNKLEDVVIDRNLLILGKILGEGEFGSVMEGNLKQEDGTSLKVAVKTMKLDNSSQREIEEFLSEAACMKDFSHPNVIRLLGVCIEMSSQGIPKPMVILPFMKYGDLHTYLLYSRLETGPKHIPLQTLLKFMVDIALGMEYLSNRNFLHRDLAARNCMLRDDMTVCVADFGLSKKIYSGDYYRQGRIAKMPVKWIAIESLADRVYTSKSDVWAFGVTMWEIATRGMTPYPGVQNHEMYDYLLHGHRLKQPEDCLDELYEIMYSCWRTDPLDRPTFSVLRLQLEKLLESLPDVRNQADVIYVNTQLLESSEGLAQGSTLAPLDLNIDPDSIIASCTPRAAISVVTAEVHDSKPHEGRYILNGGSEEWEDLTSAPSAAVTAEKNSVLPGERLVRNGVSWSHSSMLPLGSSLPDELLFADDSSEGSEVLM

| SMILES | IC50 [nM] |
| --- | --- |
| Cn1cc(-c2cnc(N)c(C(=O)N[C@@H]3CCN(C(=O)c4ccc(-c5ccc(CC#N)cc5)cc4)C3)c2)cn1 [Example 676, (R)-2-amino-N-(1-(4′-(cyanomethyl)-[1,1′-biphenyl]-4-carbonyl)pyrrolidin-3-yl)-5-(1-methyl-1H-pyrazol-4-yl)nicotinamide] | 100 to 1000 |
| Cn1cc(-c2cnc(N)c(C(=O)N[C@@H]3CCN(C(=O)c4ccc(-c5ccc(C(=O)N6CCOCC6)cc5)cc4)C3)c2)cn1 [Example 493, (R)-2-amino-5-(1-methyl-1H-pyrazol-4-yl)-N-(1-(4′-(morpholine-4-carbonyl)-[1,1′-biphenyl]-4-carbonyl)pyrrolidin-3-yl)nicotinamide] | > 1000 |
| Cn1cc(-c2cnc(N)c(C(=O)N[C@@H]3CCN(C(=O)c4ccc(/C=C/c5ccncc5)cc4)C3)c2)cn1 [Example 824, (R,E)-2-amino-5-(1-methyl-1H-pyrazol-4-yl)—N-(1-(4-(2-(pyridin-4-yl)vinyl)benzoyl)pyrrolidin-3-yl)nicotinamide] | 100 to 1000 |
| Cn1cc(-c2cnc(N)c(C(=O)N[C@@H]3CCN(C(=O)c4ccc(-c5ccc(CN6CCC(N)CC6)cc5)cc4)C3)c2)cn1 [Example 547, (R)-2-amino-N-(1-(4′-((4-aminopiperidin-1-yl)methyl)-[1,1′-biphenyl]-4-carbonyl)pyrrolidin-3-yl)-5-(1-methyl-1H-pyrazol-4-yl)nicotinamide] | 100 to 1000 |
| Cn1cc(-c2cnc(N)c(C(=O)N[C@@H]3CCN(C(=O)c4cccc5c(Br)cccc45)C3)c2)cn1 [Example 669, (R)-2-amino-N-(1-(5-bromo-1-naphthoyl)pyrrolidin-3-yl)-5-(1-methyl-1H-pyrazol-4-yl)nicotinamide] | > 1000 |
| CN1CC[C@@H]2CN(Cc3ccc(-c4cccc(OC(=O)N5CC[C@@H](NC(=O)c6cc(-c7cnn(C)c7)cnc6N)C5)c4)cc3)C[C@@H]21 [Example 322, 4′-(((3aR,6aR)-1-methylhexahydropyrrolo[3,4-b]pyrrol-5(1H)-yl)methyl)-[1,1′-biphenyl]-3-yl (R)-3-(2-amino-5-(1-methyl-1H-pyrazol-4-yl)nicotinamido)pyrrolidine-1-carboxylate] | 100 to 1000 |
| Cn1cc(-c2cnc(N)c(C(=O)N[C@@H]3CCN(C(=O)c4cccc(Oc5ccc(CN6CCC[C@@H]6CO)cc5)c4)C3)c2)cn1 [Example 447, 2-amino-N—((R)-1-(3-(4-(((R)-2-(hydroxymethyl)pyrrolidin-1-yl)methyl)phenoxy)benzoyl)pyrrolidin-3-yl)-5-(1-methyl-1H-pyrazol-4-yl)nicotinamide] | > 1000 |
| Cn1cc(-c2cnc(N)c(C(=O)N[C@@H]3CCN(C(=O)c4ccc(C(C)(C)C)cc4)C3)c2)cn1 [Example 414, (R)-2-amino-N-(1-(4-(tert-butyl)benzoyl)pyrrolidin-3-yl)-5-(1-methyl-1H-pyrazol-4-yl)nicotinamide] | > 1000 |
| CN(C)C1CCN(Cc2ccc(-c3cccc(OC(=O)N4CC[C@@H](NC(=O)c5cc(-c6cnn(C)c6)cnc5N)C4)c3)cc2)C1 (stereo partly drawn) [Example 311, 4′-((3-(dimethylamino)pyrrolidin-1-yl)methyl)-[1,1′-biphenyl]-3-yl (3R)-3-(2-amino-5-(1-methyl-1H-pyrazol-4-yl)nicotinamido)pyrrolidine-1-carboxylate] | 100 to 1000 |
| Cc1cc(-c2cc(F)ccc2Cl)ccc1C(=O)N1CC[C@@H](NC(=O)c2cc(-c3cnn(C)c3)cnc2N)C1 [Example 691, (R)-2-amino-N-(1-(2′-chloro-5′-fluoro-3-methyl-[1,1′-biphenyl]-4-carbonyl)pyrrolidin-3-yl)-5-(1-methyl-1H-pyrazol-4-yl)nicotinamide] | > 1000 |
| Cc1cc(C)cc(OC(=O)N2CC[C@@H](NC(=O)c3cc(-c4cnn(C)c4)cnc3N)C2)c1 [Example 91, 3,5-dimethylphenyl (R)-3-(2-amino-5-(1-methyl-1H-pyrazol-4-yl)nicotinamido)pyrrolidine-1-carboxylate] | > 1000 |
| Cn1cc(-c2cnc(N)c(C(=O)N[C@@H]3CCN(C(=O)c4ccc(-c5ccsc5)cc4)C3)c2)cn1 [Example 358, (R)-2-amino-5-(1-methyl-1H-pyrazol-4-yl)-N-(1-(4-(thiophen-3-yl)benzoyl)pyrrolidin-3-yl)nicotinamide] | 100 to 1000 |
| Nc1ncc(-c2cncc(C(=O)O)c2)cc1C(=O)N[C@@H]1CCN(C(=O)c2ccc(-c3ccc(F)cc3Cl)cc2)C1 [Example 587, (R)-6′-amino-5′-((1-(2′-chloro-4′-fluoro-[1,1′-biphenyl]-4-carbonyl)pyrrolidin-3-yl)carbamoyl)-[3,3′-bipyridine]-5-carboxylic acid] | 100 to 1000 |
| Cn1cc(-c2cnc(N)c(C(=O)N[C@@H]3CCN(C(=O)c4ccc(-c5ccccc5)cc4)C3)c2)cn1 [Example 343, (R)—N-(1-([1,1′-biphenyl]-4-carbonyl)pyrrolidin-3-yl)-2-amino-5-(1-methyl-1H-pyrazol-4-yl)nicotinamide] | 10 to 100 |
| Cc1cc(C)cc(NC(=O)N2CC[C@@H](NC(=O)c3cc(-c4cnn(C)c4)cnc3N)C2)c1 [Example 4, (R)-2-amino-N-(1-((3,5-dimethylphenyl)carbamoyl)pyrrolidin-3-yl)-5-(1-methyl-1H-pyrazol-4-yl)nicotinamide] | > 1000 |
| Cn1cc(-c2cnc(N)c(C(=O)N[C@@H]3CCN(C(=O)c4cccc(-c5cnn(C6CCCC6)c5)c4)C3)c2)cn1 [Example 470, (R)-2-amino-N-(1-(3-(1-cyclopentyl-1H-pyrazol-4-yl)benzoyl)pyrrolidin-3-yl)-5-(1-methyl-1H-pyrazol-4-yl)nicotinamide] | > 1000 |
| Nc1ncc(-c2cnn(C3CCNCC3)c2)cc1C(=O)N[C@@H]1CCN(Cc2ccnc(Cl)c2)C1 [Example 631, (R)-2-amino-N-(1-((2-chloropyridin-4-yl)methyl)pyrrolidin-3-yl)-5-(1-(piperidin-4-yl)-1H-pyrazol-4-yl)nicotinamide] | > 1000 |
| Cn1cc(-c2cnc(N)c(C(=O)N[C@@H]3CCN(C(=O)c4ccc(-c5ccc(N6CCOCC6)cc5)cc4)C3)c2)cn1 [Example 492, (R)-2-amino-5-(1-methyl-1H-pyrazol-4-yl)-N-(1-(4′-morpholino-[1,1′-biphenyl]-4-carbonyl)pyrrolidin-3-yl)nicotinamide] | > 1000 |
| Cn1cc(-c2cnc(N)c(C(=O)N[C@@H]3CCN(C(=S)Nc4ccc(F)cc4)C3)c2)cn1 [Example 42, (R)-2-amino-N-(1-((4-fluorophenyl)carbamothioyl)pyrrolidin-3-yl)-5-(1-methyl-1H-pyrazol-4-yl)nicotinamide] | > 1000 |
| Cn1cc(-c2cnc(N)c(C(=O)N[C@@H]3CCN(C(=O)NC4CCCCC4)C3)c2)cn1 [Example 30, (R)-2-amino-N-(1-(cyclohexylcarbamoyl)pyrrolidin-3-yl)-5-(1-methyl-1H-pyrazol-4-yl)nicotinamide] | 100 to 1000 |
| Nc1ncc(-c2cnn(C3CCNCC3)c2)cc1C(=O)N[C@@H]1CCN(C(=O)Oc2cccc(-c3ccccc3)c2)C1 [Example 147, [1,1′-biphenyl]-3-yl (R)-3-(2-amino-5-(1-(piperidin-4-yl)-1H-pyrazol-4-yl)nicotinamido)pyrrolidine-1-carboxylate] | 10 to 100 |
| Cn1cc(-c2ccc(C(=O)N3CC[C@@H](NC(=O)c4cc(-c5cnn(C)c5)cnc4N)C3)cc2)cn1 [Example 506, (R)-2-amino-5-(1-methyl-1H-pyrazol-4-yl)-N-(1-(4-(1-methyl-1H-pyrazol-4-yl)benzoyl)pyrrolidin-3-yl)nicotinamide] | 100 to 1000 |
| CC(=O)Nc1cccc(OC(=O)N2CC[C@@H](NC(=O)c3cc(-c4cnn(C)c4)cnc3N)C2)c1 [Example 76, 3-acetamidophenyl (R)-3-(2-amino-5-(1-methyl-1H-pyrazol-4-yl)nicotinamido)pyrrolidine-1-carboxylate] | > 1000 |
| CC(C)c1ccc(C(=O)N2CC[C@@H](NC(=O)c3cc(-c4cnn(C)c4)cnc3N)C2)cc1 [Example 418, (R)-2-amino-N-(1-(4-isopropylbenzoyl)pyrrolidin-3-yl)-5-(1-methyl-1H-pyrazol-4-yl)nicotinamide] | > 1000 |
| Cn1cc(-c2cnc(N)c(C(=O)N[C@@H]3CCN(c4nc5ccccc5[nH]4)C3)c2)cn1 [Example 133, (R)—N-(1-(1H-benzo[d]imidazol-2-yl)pyrrolidin-3-yl)-2-amino-5-(1-methyl-1H-pyrazol-4-yl)nicotinamide] | > 1000 |
| Cn1cc(-c2cnc(N)c(C(=O)N[C@@H]3CCN(C(=O)Oc4ccc5cc(O)ccc5c4)C3)c2)cn1 [Example 104, 6-hydroxynaphthalen-2-yl (R)-3-(2-amino-5-(1-methyl-1H-pyrazol-4-yl)nicotinamido)pyrrolidine-1-carboxylate] | 100 to 1000 |
| CN1CCC(n2cc(-c3cnc(N)c(C(=O)N[C@@H]4CCN(C(=O)Oc5ccccc5)C4)c3)cn2)CC1 [Example 119, phenyl (R)-3-(2-amino-5-(1-(1-methylpiperidin-4-yl)-1H-pyrazol-4-yl)nicotinamido)pyrrolidine-1-carboxylate] | > 1000 |
| Cc1sc(-c2ccc(C(=O)N3CC[C@@H](NC(=O)c4cc(-c5cnn(C)c5)cnc4N)C3)cc2)c(C)c1Br [Example 522, (R)-2-amino-N-(1-(4-(4-bromo-3,5-dimethylthiophen-2-yl)benzoyl)pyrrolidin-3-yl)-5-(1-methyl-1H-pyrazol-4-yl)nicotinamide] | 100 to 1000 |
| Cn1cc(-c2cnc(N)c(C(=O)N[C@@H]3CCN(C(=O)c4cccc(-c5cnn(C6CCNCC6)c5)c4)C3)c2)cn1 [Example 451, (R)-2-amino-5-(1-methyl-1H-pyrazol-4-yl)-N-(1-(3-(1-(piperidin-4-yl)-1H-pyrazol-4-yl)benzoyl)pyrrolidin-3-yl)nicotinamide] | > 1000 |
| Cn1cc(-c2cnc(N)c(C(=O)N[C@@H]3CCN(C(=O)OC4CCCC4)C3)c2)cn1 [Example 106, cyclopentyl (R)-3-(2-amino-5-(1-methyl-1H-pyrazol-4-yl)nicotinamido)pyrrolidine-1-carboxylate] | > 1000 |
